Source: patent EP0968649A1, “Adjuvants for novel dry herbicide formulations” (E.I. DU PONT DE NEMOURS AND COMPANY, priority 1998, dated 2000)

Legend:
Assay type in all cases: in vivo
[1] = system: Alopecurus myosuroides (ALOMY); assay: Example 8: field weed control, adjuvants mixed with flupyrsulfuron methyl, visual percent growth reduction and head count; conditions: surfactant, where named, 0.1%; for % control ALOMY: 300 L/ha, 60 days after treatment; for Heads/m^2 ALOMY: at 85 days, untreated 784
Source text: (§1) Evaluation of the adjuvants was made, in the field by mixing the adjuvant with flupyrsulfuron methyl herbicide and spraying the resulting solution at a rate of 2.5 to 20 g/ha flupyrsulfuron methyl in a spray volume of 300 L/ha on Alopecurus myosuroides (ALOMY). Surfactants were applied at a concentration of 0.1 % by weight of SC5045 or 0.1 % by volume of Trend® 90 per volume of spray solution. Three replications were made of each treatment. Weed control was visually assessed 60 days after treatment by evaluating the percent growth reduction, using a 0 to 100% scale where 0% equals no control, and 100% equals death of the weed and by counting the number of ALOMY heads per m^2, at 85 days.

[2] = system: velvetleaf (Abutilon theophrastic); assay: Example 23: adjuvants tank mixed with chlorimuron ethyl, percent control from green fresh weights; conditions: herbicide alone, no adjuvant; chlorimuron ethyl 1.5 g/ha; 187 L/ha; after two weeks
Method: (§2) The effect of adjuvants on the activity of chlorimuron ethyl was investigated by tank mixing the adjuvants with the herbicide. Evaluation of the adjuvants was made by mixing the adjuvant with an herbicide solution and spraying the resulting solution at a rate of 1.5 g/ha chlorimuron ethyl in a spray volume of 187 L/ha on velvetleaf (Abutilon theophrastic). Four replications were made of each treatment. Plants were evaluated after two weeks by measuring their green fresh weights and convening these weight by comparison to an untreated control treatment into percent control values.

[3] = system: common lambsquarters (Chenopodium album L.); assay: Example 24: adjuvants tank mixed with thifensulfuron methyl, percent control from green fresh weights; conditions: herbicide alone, no adjuvant; thifensulfuron methyl 2 g/ha; 187 L/ha; after two weeks
Method: as §2, with “thifensulfuron methyl” for “chlorimuron ethyl”, “2” for “1.5”, “common lambsquarters (Chenopodium album L.).” for “velvetleaf (Abutilon theophrastic).”, “converting” for “convening”

[4] = system: giant foxtail (Setaria faberi); assay: Example 22: adjuvants tank mixed with quizalofop-ethyl, percent control from green fresh weights; conditions: herbicide alone, no adjuvant; quizalofop-ethyl 3.5 g/ha; 187 L/ha; after two weeks
Method: as §2, with “quizalofop-ethyl” for “chlorimuron ethyl”, “3.5” for “1.5”, “giant foxtail (Setaria faberi).” for “velvetleaf (Abutilon theophrastic).”, “treatment. The experiment was repeated two times.” for “treatment.”, “converting” for “convening”

[5] = system: giant foxtail (Setaria faberi); assay: Example 21: adjuvants tank mixed with isopropylamine salt of glyphosate, percent control from green fresh weights; conditions: herbicide alone, no added adjuvant; 210 g/ha isopropylamine salt of glyphosate; 187 L/ha; after two weeks
Method: as §2, with “of the isopropylamine salt of glyphosate” for “of chlorimuron ethyl”, “of 210” for “of 1.5”, “g/ha isopropylamine salt of glyphosate” for “g/ha chlorimuron ethyl”, “on giant foxtail (Setaria faberi).” for “on velvetleaf (Abutilon theophrastic).”, “and converting” for “and convening”

[6] = system: Veronica agrestis (VERAG); assay: Example 5: weed control, SCS5045 surfactant mixed with tribenuron methyl, visual percent growth reduction; conditions: where named, 0.1%, 300 L/ha, 70 days after treatment
Source text: (§3) Evaluation of SCS5045 surfactant was made by mixing the surfactant with tribenuron methyl herbicide and spraying the resulting solution at a rate of 5.625 to 45 g/ha tribenuron methyl in a spray volume of 300 L/ha on Viola arvensis (VIOAR) and Veronica agrestis (VERAG). Surfactants were applied at a concentration of 0.1% by weight (if the surfactant is dry) or by volume (if the surfactant is a liquid) of surfactant per volume of spray solution. Three replications were made of each treatment. Weed control was visually assessed 70 days after treatment by evaluating the percent growth reduction, using a 0 to 100% scale where 0% equals no control, and 100% equals death of the weed.

Viola arvensis (VIOAR) = assay: as above; conditions: where named, 0.1%, 300 L/ha, 70 days after treatment
Source text: as §3

[7] = system: giant foxtail (Setaria faberi); assay: Example 20: adjuvants tank mixed with nicosulfuron, percent control from green fresh weights; conditions: herbicide alone, no adjuvant; nicosulfuron 3.5 g/ha; 187 L/ha; after two weeks
Method: as §2, with “nicosulfuron” for “chlorimuron ethyl”, “a nicosulfuron” for “an herbicide”, “3.5” for “1.5”, “giant foxtail (Setaria faberi).” for “velvetleaf (Abutilon theophrastic).”, “treatment. The experiment was repeated three times.” for “treatment.”, “converting” for “convening”

[8] = system: giant foxtail (Setaria faberi); assay: Example 19: adjuvants tank mixed with nicosulfuron, percent control from green fresh weights; conditions: Adjuvant Conc. 0 % w/w (no adjuvant); nicosulfuron 3.5 g/ha; 187 L/ha; after two weeks
Method: as §2, with “nicosulfuron” for “chlorimuron ethyl”, “a nicosulfuron” for “an herbicide”, “3.5” for “1.5”, “giant foxtail (Setaria faberi). Three” for “velvetleaf (Abutilon theophrastic). Four”, “converting” for “convening”

[9] = system: Veronica hederifolia (VERHE); assay: Example 7: field weed control, SCS5045 surfactant mixed with metsulfuron methyl, visual percent growth reduction; conditions: where named, 0.1%, 300 L/ha, 50 days after treatment
Source text: as §3, with “was made, in the field” for “was made”, “with metsulfuron” for “with tribenuron”, “g/ha metsulfuron” for “g/ha tribenuron”, “on” for “on Viola arvensis (VIOAR) and”, “Veronica hederifolia (VERHE).” for “Veronica agrestis (VERAG).”, “assessed 50” for “assessed 70”

[10] = system: Alopecurus myosuroides (ALOMY); assay: Example 6: field weed control, SCS5045 surfactant mixed with sulfosulfuron, visual percent growth reduction and head count; conditions: where named, 0.1%; for % control ALOMY: 300 L/ha, 60 days after treatment; for Heads/m^2 ALOMY: counted 85 days after treatment, untreated 400
Source text: as §1, with “SCS5045 surfactant” for “the adjuvants”, “surfactant” for “adjuvant”, “sulfosulfuron” for “flupyrsulfuron methyl”, “11.25” for “2.5”, “45 g /ha sulfosulfuron” for “20 g/ha flupyrsulfuron methyl”, “weed.” for “weed and by counting the number of ALOMY heads per m^2, at 85 days.”
The number of ALOMY heads per m^2 was also counted 85 days after treatment.

[11] = flupyrsulfuron methyl 2.5 g herbicide /ha
[12] = flupyrsulfuron methyl 5 g herbicide /ha
[13] = flupyrsulfuron methyl 10 g herbicide /ha
[14] = flupyrsulfuron methyl 20 g herbicide /ha
[15] = tribenuron methyl 5.625 g ai/ha
[16] = tribenuron methyl 11.25 g ai/ha
[17] = sulfosulfuron 11.25 g herbicide /ha
[18] = sulfosulfuron 22.5 g herbicide /ha
[19] = sulfosulfuron 33.75 g herbicide /ha
[20] = sulfosulfuron 45 g herbicide /ha

SMILES: COC(=O)c1ccc(C(F)(F)F)nc1S(=O)(=O)NC(=O)Nc1nc(OC)cc(OC)n1 [KE459, flupyrsulfuron methyl]
- % control ALOMY [1, 11]: 63%
- Heads/m^2 ALOMY [1, 11]: 224 Heads/m^2
- % control ALOMY [1, 12]: 73%
- Heads/m^2 ALOMY [1, 12]: 164 Heads/m^2
- % control ALOMY [1, 13]: 77%
- Heads/m^2 ALOMY [1, 13]: 16 Heads/m^2
- % control ALOMY [1, 14]: 88%
- Heads/m^2 ALOMY [1, 14]: 8 Heads/m^2

SMILES: CCOC(=O)c1ccccc1S(=O)(=O)NC(=O)Nc1nc(Cl)cc(OC)n1 [Chlorimuron Alone, chlorimuron ethyl]
- % Velvetleaf Control [2]: 53%

SMILES: COC(=O)c1sccc1S(=O)(=O)NC(=O)Nc1nc(C)nc(OC)n1 [Thifensulfuron Alone, thifensulfuron methyl]
- % Common Lambsquarters Control [3]: 11%

SMILES: CCOC(=O)C(C)Oc1ccc(Oc2cnc3cc(Cl)ccc3n2)cc1 (stereo not shown) [Quizalofop Ethyl Alone, quizalofop-ethyl]
- % Control [4]: 7%

SMILES: CC(C)N.O=C(O)CNCP(=O)(O)O [Glyphosate IPA Alone, isopropylamine salt of glyphosate]
- % Control [5]: 85%

SMILES: COC(=O)c1ccccc1S(=O)(=O)NC(=O)N(C)c1nc(C)nc(OC)n1 [Tribenuron methyl, tribenuron methyl]
- % control VERAG [6, 15]: 47%
- % control VERAG [6, 16]: 60%
- % control VERAG ([6]; tribenuron methyl 22.5 g ai/ha): 63%
- % control VERAG ([6]; tribenuron methyl 45 g ai/ha): 87%
- % control VIOAR (Viola arvensis (VIOAR); [15]): 27%
- % control VIOAR (Viola arvensis (VIOAR); [16]): 75%
- % control VIOAR (Viola arvensis (VIOAR); tribenuron methyl 22.5 g ai/ha): 80%
- % control VIOAR (Viola arvensis (VIOAR); tribenuron methyl 45 g ai/ha): 99%

SMILES: COc1cc(OC)nc(NC(=O)NS(=O)(=O)c2ncccc2C(=O)N(C)C)n1 [Nicosulfuron Alone, nicosulfuron]
- % Control [7]: 2%
- percent control [8]: 0%

SMILES: COC(=O)c1ccccc1S(=O)(=O)NC(=O)Nc1nc(C)nc(OC)n1 [T6376, metsulfuron methyl]
- VERHE (percent growth reduction) ([9]; metsulfuron methyl 5.625 g herbicide /ha): 33%
- VERHE (percent growth reduction) ([9]; metsulfuron methyl 11.25 g herbicide /ha): 33%
- VERHE (percent growth reduction) ([9]; metsulfuron methyl 22.5 g herbicide /ha): 52%
- VERHE (percent growth reduction) ([9]; metsulfuron methyl 45 g herbicide /ha): 100%

SMILES: CCS(=O)(=O)c1nc2ccccn2c1S(=O)(=O)NC(=O)Nc1nc(OC)cc(OC)n1 [Sulfosulfuron, sulfosulfuron]
- % control ALOMY [10, 17]: 33%
- Heads/m^2 ALOMY [10, 17]: 209 Heads/m^2
- % control ALOMY [10, 18]: 47%
- Heads/m^2 ALOMY [10, 18]: 76 Heads/m^2
- % control ALOMY [10, 19]: 60%
- Heads/m^2 ALOMY [10, 19]: 25 Heads/m^2
- % control ALOMY [10, 20]: 77%
- Heads/m^2 ALOMY [10, 20]: 6 Heads/m^2
